Entries after “also recorded” stand apart in the source; their conditions may differ.
What was measured:
6 Hz limbic seizures = assay: 6 Hz limbic (psychomotor) seizure test; format: in vivo, mouse
Text: Mice not displaying limbic seizures were considered protected.
As mentioned above, the 6 Hz seizure becomes more resistant to block by antiepileptic drugs as the current is increased from 22 mA to 44 mA.

mechanical allodynia = assay: Sciatic nerve ligation model of chronic pain, mechanical allodynia (Von Frey); format: in vivo, rat; details: 2 mg/kg i.p.
Method: Just prior to surgery, rats are treated subcutaneously with 0.1 to 0.5 mg/kg of the long acting opiate buprenorphine. Rats are then anesthetized with pentobarbital and the depth of anesthesia monitored by their response to a tail pinch and observation of the depth of respiration. Sterile technique was used throughout the surgery.
The upper thigh of each rat was shaved and wiped off with ethanol and betadine. A small incision was made in the skin and through the underlying muscle of the upper thigh until the sciatic nerve was exposed. The nerve was then separated from the surrounding connective tissue and slightly elevated by a pair of fine, curved forceps. Approximately ⅓ to ½ of the nerve was then tied off by passing a needle and nylon suture (7.0) through the nerve. […] Rats were closely monitored daily for the development of infection or untoward effects of the surgery.
After an appropriate time for recovery (e.g., 7-14 days) the animals were tested for the development of mechanical allodynia (pain response to a non-noxious stimulus). […] After a 30-60 minute acclimation period, a baseline mechanical sensitivity was determined. […] This procedure was repeated until a 50% threshold for withdrawal could be determined.

[1] = tested on: tonic-extension (maximal electroshock) seizures; assay: Maximal electroshock seizure (MES) test; format: in vivo, mouse; details: 4 mg/kg i.p., tested one hour later
Text: Abolition of the hindleg tonic extensor component of the seizure is used as the endpoint.

[2] = tested on: hippocampal kindled seizures; assay: Hippocampal kindled rat model of partial epilepsy; format: in vivo; details: i.p.; decreased from 5
sound-induced seizures = assay: Frings audiogenic seizure-susceptible mouse model of reflex epilepsy; format: in vivo; details: i.p., 4 mg/kg for time course, dose-response 1 h after dosing
Text: (§1) The ability of individual modified peptides to prevent seizures induced by sound in the AGS-susceptible Frings mouse model can be assessed at the time of peak effect (White et al., 1992). For this test, individual mice are placed into a plexiglass cylinder (diameter, 15 cm; height, 18 cm) fitted with an audio transducer (Model AS-ZC; FET Research and Development, Salt Lake City, Utah), and exposed to a sound stimulus of 110 decibels (11 KHz) delivered for 20 seconds. Sound-induced seizures are characterized by wild running followed by loss of righting reflex with forelimb and hindlimb tonic extension. Mice not displaying hindlimb tonic extension are considered protected.
The two modified galanin analogs (GAL-BBB1 and GAL-BBB2) were administered i.p. to a group of Frings audiogenic seizure susceptible mice in a dose of 4 mg/kg. At various times after administration (i.e., 15, 30, 60, 120, and 240 min) each mouse was placed into a cylindrical test chamber fitted with an audio transducer and challenged with a high-intensity sound stimulus (110 dB, 11 KHz for 20 sec). Animals not displaying tonic hind-limb extension were considered protected. […] In a subsequent study, anticonvulsant efficacy was quantitated at the time to peak effect (i.e., 1 h) in a dose-response study.
as §1, with “analogs” for “peptides”
At various times after administration (i.e., 15, 30, 60, 120, and 240 min) each mouse was placed into a cylindrical test chamber fitted with an audio transducer and challenged with a high-intensity sound stimulus (110 dB, 11 KHz for 20 sec).

For “Sar-Trp-Thr-Leu-Asn-Ser-Ala-Gly-Tyr-Leu-Leu-Gly-Pro-Lys-Lys-(Lys-palm)-Lys-NH2 [NAX 5055]”, the “activity in pharmaco-resistant seizure model” value (6 Hz limbic seizures; 4 mg/kg) was “active”, the “potency and efficacy relative to native peptide fragment” value (6 Hz limbic seizures; 6 Hz (32 mA), i.c.v.) was “more potent and efficacious than the native peptide fragment GAL(1-16)” and the “% Protection at 2 hours afforded by a dose of 4 mg/kg, i.p.” value (6 Hz limbic seizures; 2 h, 4 mg/kg i.p.) was 100%. For the same substance, the “% Protection at 4 hours afforded by a dose of 4 mg/kg, i.p.” value (6 Hz limbic seizures; 4 h, 4 mg/kg i.p.) was 0%, the “ED50 in the 6 Hz limbic seizure model (in Table 14 in parentheses)” value (6 Hz limbic seizures; i.p., SAR analogs) was “(0.8 mg/kg)” and the “ED50 following i.c.v. administration” value (6 Hz limbic seizures; intracerebroventricular, 6 Hz (32 mA)) was 0.07 nmol. The “anticonvulsant activity following subcutaneous administration” value (6 Hz limbic seizures; s.c., 32 mA, 60 min, CF-1 mice) was “preserved; also recorded: retained”, the “threshold for mechanical allodynia” value (mechanical allodynia; 30 min to 6 h) was “time-dependent increase in the threshold for mechanical allodynia” and the “potency relative to morphine (2 mg/kg) and gabapentin (40 mg/kg)” value (mechanical allodynia; listed as GAL-BBB2) was “equi-potent to morphine; also recorded: several fold more potent that gabapentin”. For the same substance, the “activity in maximal electroshock seizure test” value [1] was “completely inactive”, the seizure score [2] was 3 and the “anticonvulsant effect against sound-induced seizures” value (shortened to “anticonvulsant effect”) (sound-induced seizures; 4 mg/kg) was “effective; also recorded: time-dependent anticonvulsant activity; also recorded: dose-dependent protection”. The “anticonvulsant effect” value (sound-induced seizures; listed as GAL-BBB2, 4 mg/kg) was “dose-dependent effect” and the “anticonvulsant effect” value (sound-induced seizures; listed as Gal BBB-2, 4 mg/kg) was “time (inset) and dose-dependent protection”.

Reference: patent US9586999B2, “Methods and compositions related to improving properties of pharmacological agents targeting nervous system” (University of Utah Research Foundation, priority 2006, dated 2017)
